Seven molecules from paper PMC4747340, “A new class of small molecule estrogen receptor-alpha antagonists that overcome anti-estrogen resistance” (Oncotarget, 2015) can be followed below.

The target of series [1] is T1, estrogen receptor-alpha (ER) (Homo sapiens, UniProt P03372).
T1 sequence (P03372 1-595): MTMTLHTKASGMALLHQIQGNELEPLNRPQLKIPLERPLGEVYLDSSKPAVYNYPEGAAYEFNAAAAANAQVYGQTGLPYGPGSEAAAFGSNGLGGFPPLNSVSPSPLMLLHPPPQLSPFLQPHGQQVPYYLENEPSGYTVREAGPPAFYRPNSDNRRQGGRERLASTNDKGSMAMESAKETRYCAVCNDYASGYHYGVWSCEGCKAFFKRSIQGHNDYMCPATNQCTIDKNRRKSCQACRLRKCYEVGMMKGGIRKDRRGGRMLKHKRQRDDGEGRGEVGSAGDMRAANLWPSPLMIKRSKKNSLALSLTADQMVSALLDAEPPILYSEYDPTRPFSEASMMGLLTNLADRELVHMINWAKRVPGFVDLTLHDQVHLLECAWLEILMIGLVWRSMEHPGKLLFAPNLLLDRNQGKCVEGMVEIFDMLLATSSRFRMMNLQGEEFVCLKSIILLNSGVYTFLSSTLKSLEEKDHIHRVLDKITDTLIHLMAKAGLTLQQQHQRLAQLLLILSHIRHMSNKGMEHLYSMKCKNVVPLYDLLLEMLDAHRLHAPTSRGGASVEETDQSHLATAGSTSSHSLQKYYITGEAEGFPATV
The series can be described thus: constitutive ER activity, ERE-TK-Luc reporter, in anti-estrogen resistant LCC9 cells. The class given is cell-based. Set-up: LCC9 cells in 24-well dishes were transfected overnight with the ERE-TK-Luc reporter plasmid; endogenous in cells; host or cells: LCC9. Particulars: LCC9, no E2, 24 hr; read-out: IC50 for inhibition of ER activity in LCC9. As for the experimental part: (§1) For MCF-7, luciferase activity is expressed as a fold-change relative to the no E2 control. For LCC9, luciferase activity is expressed relative to the control without the reporter present. Values plotted are means ± SEMs of four replicate wells. The data shown in each panel are representative of three independent experiments.
The cells were then treated with the indicated concentrations of the six bioactive compounds or vehicle only (DMSO) for 24-hr and assayed for luciferase activity. Luciferase activity is expressed as a percentage of the DMSO control. Values are means ± SEMs of four replicate wells. The data shown in each panel are representative of three independent experiments.
The cells were then harvested for luciferase assays. Luciferase activity was expressed as a fold-change relative to the no reporter control. Values plotted are means ± SEMs of four replicate wells. The data shown are representative of three independent experiments.
(§2) Subconfluent cells in 24-well dishes were transfected overnight with 0.25 μg of each indicated vector plus the ERE-TK-Luc reporter in serum-free DMEM containing Lipofectamine2000 (Life Technologies, Washington, DC). Total transfected DNA was kept constant by addition of control vector. The cells were washed, incubated in phenol red-free DMEM containing 5% charcoal-stripped serum (obtained from the Tissue Culture Shared Resource) (0.2 ml/well) ± E2 (10 nM) ± the indicated compound for 24-hr, and harvested for luciferase assays. For each assay condition was tested in quadrupicate. To monitor the transfection efficiency, cultures were co-transfected with plasmid pRSV-β-gal (Promega, Madison, WI) to visualize transfected cells by X-gal staining.

Series [2] in a line: MTT assay of cell viability. Particulars: human, MCF-7 cells, 24-hr exposure, relative to untreated control. The class given is cell-based. As for the experimental part: Figure 3 Cytotoxicity and specificity of compounds A., B. Subconfluent proliferating cells were incubated with the indicated compound at the indicated concentration for 24-hr and then harvested for MTT dye reduction assays. Cell viability values (relative to untreated control cells) are means ± SEMs of 10 replicate wells. C., D. Subconfuent proliferating T47D cells were transfected overnight with the MMTV-Luc reporter (0.25 μg per well in 24-well dishes), washed, and allowed to recover for several hr in fresh medium. The cells were then treated with a synthetic progestin (R5020, 10 nM) plus the indicated compound at the indicated concentration for 24 hr and then harvested for luciferase assays. Luciferase activity is expressed relative to the MMTV-Luc control (no agents added) (panel A) or as a percentage of the +R5020 positive control (panel B). Values are means ± SEMs of four replicate wells. The data shown in each panel are representative of three independent experiments.
Assays were performed as described before. After the indicated treatment, cells in 96-well dishes were solubilized and assayed for MTT dye reduction. Cell viability was expressed as the amount of dye reduction relative to untreated control cells. and calculated as means ± SEMs for 10 replicate wells.

Series [3] concerns the target T1, estrogen receptor-alpha (ER). The series can be described thus: ER activity, ERE-TK-Luc reporter, in MCF-7 cells. The class given is cell-based. Set-up: MCF-7 cells in 24-well dishes were transfected overnight with the ERE-TK-Luc reporter plasmid; endogenous in cells; host or cells: MCF-7. Particulars: for IC50: read-out: IC50 for inhibition of E2-stimulated ER activity. The method, then:
as §1
The cells were then treated ± 17β-estradiol (E2, 10 nM) and with the indicated compound (@ 1 μM or 20 μM) or vehicle only (DMSO) for 24 hr and assayed for luciferase activity. Luciferase activity is expressed as a fold-change relative to the no E2 control. The data shown are representative of three independent experiments.
as §2

In a further series the test system is LCC9 cells. Nature of the series: cell proliferation assay (cell counts days 1, 3, 5), LCC9. The class given is cell-based, human. Particulars: DMEM + 5% charcoal-stripped serum, up to 5 days; 4631-P/1 at 1 μM. The method, then: Starting on day 1, cells were refed daily with fresh medium (DMEM plus 5% CSS) containing the indicated agent. In panel F, the cells were refed with medium also containing ER-siRNA or control-siRNA (100 nM) at the indicated times. Wells were counted on days 1, 3, and 5 to determine cell numbers. Values are means ± SEMs of triplicate wells. The data shown in each panel are representative of three independent experiments.
Assays were performed using as the growth medium phenol red-free DMEM containing 5% charcoal-stripped serum. Briefly, proliferating cells were harvested using trypsin, counted, inoculated into 12-well dishes at 1 × 10^4 cells per well on day 0 and allowed to attach and recover for 24 hr. The cells were then treated with the indicated agents for up to five days, with daily refeeding with fresh medium and agents. Triplicate wells were counted by Coulter Counter on days 1, 3, and 5. For experiments using siRNAs, cells were treated with the indicated siRNA (100 nM) starting on day -2, and fresh siRNA was added on days 0, 2, and 4.

A further series has as its system LCC9 tumor xenografts. Nature of the series: LCC9 tumor xenograft growth in Balb/c nude mice. The class given is in vivo. The method, then:
Figure 13 Compound NSC 35446 hydrochloride salt inhibits the growth of LCC9 breast cancer xenografts in athymic nude mice Experiments were performed as described in the Methods and Results sections. The effects of the compound administered intraperitoneally every other day at 5 mg/kg A., 10 mg/kg B., and 20 mg/kg C. are shown and compared with that of vehicle only (control, CT). Values of tumor volume are means ± SDs for N=5 mice per group. Athymic Balb/c nude mice were purchased from Charles River. Mice were housed 5 per cage with microisolater tops and provided food (Furina mice chow) and water ad libitum. The light cycle was regulated automatically (12 hours light/dark cycle) and temperature 23±1°C. Animals were allowed to acclimate to this environment for one week prior to usage. The Georgetown University Animal Care and Use Committee approved all animal studies in accordance with NIH guidelines. The stock solution of NSC 35446 hydrochloride was dissolved in DMSO at 200 mg/ml. The working solution was prepared using 10% Kolliphor ELP (Sigma-Aldrich), 3% PEG400 (Hampton Research, HR2-603); and 87% PBS to give a 1 mg/ml solution. Female Balb/c nude mice (18-22g) were injected with LCC9 cells (3 × 10^6 cells in a volume of 0.3 ml) in the subcutaneous tissue of the right axillary region. The mice were randomly sorted into groups with N=5 mice per group; and treatments were initiated when the tumors reached 150-200 mm^3. The tumor-bearing mice were given intraperitoneal injections of vehicle only (control), 5 mg/kg, 10 mg/kg, or 20 mg/kg of NSC 35446 hydrochloride every other day. The tumor size of each mouse was measured by caliper and calculated by the formula: length × width × width/2 and the body weight was recorded.

A short description of series [4]: body weight and signs of acute toxicity in tumor-bearing Balb/c nude mice. The class given is in vivo. Particulars: 5, 10 or 20 mg/kg intraperitoneally every other day, 21-day study interval. The method, then: For these studies we used LCC9 cells grown as subcutaneous tumors in Balb/c nude mice. To improve water solubility, the compound tested (NSC 35446) was prepared as the hydrochloride salt, as described in the Methods section. The mice were dosed intraperitoneally with vehicle (control) or NSC 35446 hydrochloride every other day at 5, 10, or 20 mg/kg. Treatments were initiated when the tumors reached 150-200 mm^3. […] For most time points except the earliest, differences in size between the treated and control tumors were significant (P < 0.05, ANOVA, Tukey's multiple comparison test). There appeared to be some delay in tumor growth at the 5 mg/kg dose; but by day 21, the treated tumors were approaching the control tumors in size. The T/C ratios (ie., ratios of the changes in volume of treated tumors to that of control tumors) on day-21 were: 0.77 (5 mg/kg), 0.24 (10 mg/kg), and 0.15 (20 mg/kg).
Athymic Balb/c nude mice were purchased from Charles River. Mice were housed 5 per cage with microisolater tops and provided food (Furina mice chow) and water ad libitum. The light cycle was regulated automatically (12 hours light/dark cycle) and temperature 23±1°C. Animals were allowed to acclimate to this environment for one week prior to usage. […] The tumor size of each mouse was measured by caliper and calculated by the formula: length × width × width/2 and the body weight was recorded.

[5] abbreviates: MCF7, MCF-7, E2 10 nM, compound 1 μM, 24 hr, read-out: inhibition of E2-stimulated ER activity at 1 μM.

Molecules are shown by their SMILES. Counter-ions that a name gives are not always drawn. Like-named read-outs stand apart in the source and are kept apart here. Where only a bound is given, the exact number is not on record here.

On to `CC(C)=CC1C(COC(=O)c2cc3c(cc2Cl)OCO3)C1(C)C` (centres unmarked) [48693-K/1], for which, in series [1], the concentration for half-maximal inhibition (IC50) (in general, the midpoint of a concentration-inhibition curve) worked out at 4 µM. In addition, in series [2], the viability (usually a read-out of living cells in per cent, often relative to untreated cells) at 24 h, 1 µM is 100% and the viability at 24 h, 20 µM is greater than 90%. Further, the inhibition (usually the drop in the measured response relative to a control, in per cent) at 1 µM in series [3] (MCF7, read-out: inhibition of E2-stimulated ER activity at 1 μM) is no less than 50%. Further, the IC50 in series [3] (MCF-7, E2 10 nM, 24 hr) was no more than 1 µM.

Turning to `Sc1ccc2ccccc2c1CNCc1ccccc1` [81747-N/1], in series [1], the IC50 was determined as 30 µM. Further, in series [2], the viability at 24 h, 1 µM turned out to be 100% and the viability at 24 h, 20 µM was greater than 90%. Also, the inhibition at 1 µM in series [3] (setting [5]) was no less than 50%. Further, the half-maximal inhibitory concentration (IC50) in series [3] (MCF-7, E2 10 nM, 24 hr) is no more than 1 µM.

`c1ccc2c(c1)-c1ccccc1C2N1CC2CCC(CC2)C1` [88999-U/1]: the IC50 is no more than 1 µM in series [1] and no more than 1 µM in series [3] (MCF-7, E2 10 nM, 24 hr). Moreover, the inhibition at 1 µM in series [3] (setting [5]) is no less than 50%.

For `OCC(CCc1c[nH]c2ccccc12)c1c[nH]c2ccccc12` (centres unmarked) [372127-T/1], the 50% inhibitory concentration (IC50) in series [1] is no more than 1 µM; in series [3] (MCF-7, E2 10 nM, 24 hr), no more than 1 µM. Besides, the “inhibition of E2-stimulated ER activity at 1 μM” value in series [3] (MCF-7, E2 10 nM, compound 1 μM, 24 hr) is no less than 50%.

Turning to `C[C@]12CC[C@@H]3c4ccc(O)cc4CC[C@H]3[C@@H]1CC[C@@H]2O` [E2, 17β-estradiol, reference compound], the “effect on LCC9 cell growth, single agent” value in the series with LCC9 cells is “Neither E2 nor Tam significantly altered growth of LCC9”.

Regarding `O=C(CC(c1ccccc1)N1CCCCC1)c1ccccc1` (centres unmarked) [NSC 35446 hydrochloride, 1,3-diphenyl-3-(piperidin-1-yl)propan-1-one], the “T/C ratio (change in volume of treated tumors to control tumors) on day-21” value in the series with LCC9 tumor xenografts (5 mg/kg intraperitoneally every other day) is reported as 0.77; in the series with LCC9 tumor xenografts (10 mg/kg intraperitoneally every other day) it was 0.24; in the series on LCC9 tumor xenografts (20 mg/kg intraperitoneally every other day) it was 0.15. Moreover, in the series on LCC9 tumor xenografts (intraperitoneally every other day, 21-day study), the “effect on LCC9 tumor growth” value is “efficacious at the 10 mg/kg and 20 mg/kg doses in slowing tumor growth or causing tumor stasis”. In series [4], the “body weight and signs of acute toxicity” value is recorded as “No significant changes in body weight or obvious signs of acute toxicity”.

For the molecule `CC/C(=C(\c1ccccc1)c1ccc(OCCN(C)C)cc1)c1ccccc1` [Tam, Tamoxifen, reference compound], the “effect on LCC9 cell growth, single agent” value in the series with LCC9 cells was “Neither E2 nor Tam significantly altered growth of LCC9”.
